This is an account of results in ChEMBL document CHEMBL1201862, “PubChem BioAssay data set” (2004).

SMILES strings stand for the structures.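 Values below derive from 48-hour exposures of cells grown in 96-well plates, with endpoints linearly interpolated between the two concentrations bracketing the appropriate inhibition level. GI50 is the concentration that inhibits growth by half.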 The source made the active and inactive calls. Cut-off read from the data, not from the text of the source: active = GI50 up to about 1.1 µM and inactive = higher.

Holding throughout (assay): DTP human tumour cell line panel, 48 h
Experiment [1] concerns HCT-15.
The subject of experiment [2] is HCT-116.
For experiment [3], the system named is CCRF-CEM.
Experiment [4] has as its system MOLT-4.
In experiment [5] the test system is MDA-MB-231.
Experiment [6] deals with OVCAR-5.
Experiment [7] deals with MDA-MB-435.
Experiment [8] deals with OVCAR-8.
In experiment [9] the test system is SW-620.
Experiment [10] concerns UO-31.
Experiment [11] deals with KM12.
Experiment [12] deals with K562.
Experiment [13] deals with LOX IMVI.
The test system of experiment [14] is HOP-92.
For experiment [15], the system named is IGROV-1.
In experiment [16] the test system is SK-MEL-2.
Experiment [17] has as its system SK-MEL-5.
For experiment [18], the system named is 786-0.
Experiment [19] has as its system MCF7.
Experiment [20] has as its system Hs-578T.

Regarding `O=C(O)c1cccc(SSc2cccc(C(=O)O)c2)c1`, the concentration for 50% growth inhibition (GI50) was over 100 µM in [1]; > 100 µM (inactive) in [2]; 28.8 µM (inactive) in experiment [3]; > 100 µM (inactive) in experiment [4]; > 100 µM (inactive) in experiment [5]; > 100 µM (inactive) in experiment [6]. Besides, the GI50 in experiment [7], in experiment [8], in experiment [9], in experiment [10], in [11] and in experiment [12] was > 100 µM (inactive) throughout. Also, the GI50 in experiment [13], in [14], in [15], in experiment [16], in experiment [17] and in experiment [18] was > 100 µM (inactive) throughout.
In the case of `CCOC(=O)CCC(NC(=O)c1ccc(NCc2ccc3nc(-c4ccccc4)c(Cl)nc3c2)c2ccccc12)C(=O)OCC` (configuration not stated), the GI50 in experiment [1] is over 100 µM; in experiment [2], > 100 µM (inactive); in experiment [4], 0.977 µM (active); in [5], > 100 µM (inactive); in experiment [19] it was 43.5 µM (inactive); in experiment [6] it was > 100 µM (inactive). Also, the GI50 in experiment [7] is > 100 µM (inactive); in experiment [8], > 100 µM (inactive); in experiment [9] it was > 100 µM (inactive); in experiment [10], > 100 µM (inactive); in experiment [11], > 100 µM (inactive); in [12], 6.46 µM (inactive). Moreover, the GI50 is > 100 µM (inactive) in experiment [13]; > 100 µM (inactive) in experiment [14]; 72.9 µM (inactive) in experiment [16]; 9.14 µM (inactive) in experiment [17]; > 100 µM (inactive) in [18].
`O=C(CCNC12CC3CC(CC(C3)C1)C2)c1ccccc1`: the GI50 in experiment [1] is 16.5 µM; in experiment [2] it was 15.2 µM (inactive); in [3], 11.6 µM (inactive); in experiment [4], 13.1 µM (inactive); in [5], 13.4 µM (inactive); in experiment [19] it was 19.3 µM (inactive). Also, the GI50 in experiment [6] is 21.2 µM (inactive); in experiment [7], 26.5 µM (inactive); in [8], 21.6 µM (inactive); in [9], 17.3 µM (inactive); in experiment [10], 25.1 µM (inactive); in experiment [11] it was 23.6 µM (inactive). For the same compound, the GI50 is 14.3 µM (inactive) in [12]; 20.4 µM (inactive) in experiment [14]; 21.6 µM (inactive) in [15]; 15.9 µM (inactive) in [16]; 17.9 µM (inactive) in [17]; 16.3 µM (inactive) in [18].
As for `Nc1cc(N2CCCC2)nc(=O)n1Cc1ccccc1`, the GI50 in experiment [1] was over 100 µM; in experiment [2], > 100 µM (inactive); in experiment [3], > 100 µM (inactive); in [4], > 100 µM (inactive); in experiment [5] it was > 100 µM (inactive); in experiment [19], > 100 µM (inactive). In addition, the GI50 in experiment [6], in experiment [7], in [8], in [9], in experiment [11] and in [12] was > 100 µM (inactive) in each case. Further, the GI50 in [13], in experiment [14], in [15], in experiment [16], in experiment [17] and in experiment [18] was > 100 µM (inactive) throughout.
Consider `CCOC(=O)c1c(N)sc2c1C(C(=O)OCC)CCCC2` (configuration not stated), for which the GI50 in experiment [1] was 67.3 µM; in [2], 43.1 µM (inactive); in experiment [4], 29.6 µM (inactive); in [5], 46.8 µM (inactive); in experiment [19] it was > 100 µM (inactive); in [6] it was > 100 µM (inactive). The GI50 in [8] is 89.3 µM (inactive); in experiment [9], > 100 µM (inactive); in experiment [10] it was 37.6 µM (inactive); in experiment [20] it was 43.9 µM (inactive); in experiment [11], > 100 µM (inactive); in [12] it was 52.8 µM (inactive). For the same compound, the GI50 was 75.5 µM (inactive) in [14]; > 100 µM (inactive) in experiment [15]; 94.4 µM (inactive) in experiment [16]; 75.2 µM (inactive) in [17]; > 100 µM (inactive) in [18].
For the compound `CC1(C)CC(=O)c2c(nc(SSc3nc4c(c(-c5ccc(Br)cc5)c3C#N)C(=O)CC(C)(C)C4)c(C#N)c2-c2ccc(Br)cc2)C1`, the GI50 was over 10 µM in [1]; > 10 µM (inactive) in [2]; > 10 µM (inactive) in experiment [3]; > 10 µM (inactive) in [4]; > 10 µM (inactive) in experiment [19]; > 10 µM (inactive) in experiment [6]. Besides, the GI50 in [8], in experiment [9], in [10], in experiment [20], in experiment [11] and in [12] was > 10 µM (inactive) in each case. In addition, the GI50 in experiment [13], in experiment [14], in [15], in [16], in experiment [17] and in experiment [18] was > 10 µM (inactive) throughout.
On to `CCOc1cc(-c2nc3cc(F)ccc3s2)ccc1O`, for which the GI50 was 14.9 µM in [1]; 20.6 µM (inactive) in experiment [2]; 0.6 µM (active) in experiment [3]; 21.8 µM (inactive) in experiment [5]; 5.64 µM (inactive) in experiment [19]; 18.7 µM (inactive) in experiment [6]. Besides, the GI50 in experiment [7] is 18.2 µM (inactive); in experiment [8] it was 15.8 µM (inactive); in experiment [9], 19.4 µM (inactive); in experiment [10], 12.9 µM (inactive); in experiment [11] it was 17 µM (inactive); in [12], < 0.01 µM (active). Also, the GI50 in [13] was 16 µM (inactive); in [15], 12.5 µM (inactive); in experiment [16] it was 17.2 µM (inactive); in experiment [17], 16.6 µM (inactive); in experiment [18] it was 14.4 µM (inactive).
Regarding `COC(=O)[C@H](CCSC)NC(=O)c1ccc(CNC(=O)/C(C)=C/c2ccccc2)cc1`, the 50% growth inhibitory concentration (GI50) was over 100 µM in experiment [1]; 50.9 µM (inactive) in [2]; > 100 µM (inactive) in experiment [3]; > 100 µM (inactive) in experiment [4]; 46.8 µM (inactive) in experiment [5]; 80.2 µM (inactive) in experiment [19]. Also, the GI50 is 97.1 µM (inactive) in experiment [6]; 74.5 µM (inactive) in [7]; 23.3 µM (inactive) in experiment [8]; 47 µM (inactive) in [9]; 43.5 µM (inactive) in [10]; 82.4 µM (inactive) in experiment [11]. The GI50 in [12] is > 100 µM (inactive); in experiment [13], 33.1 µM (inactive); in experiment [14], 25.8 µM (inactive); in experiment [15] it was 50.1 µM (inactive); in [16] it was 20.7 µM (inactive); in [17], 34.8 µM (inactive). Moreover, the GI50 in experiment [18] is 20.8 µM (inactive).

One may read the GI50 as the concentration giving 50% growth inhibition.
